Counter-ions that a name gives are not always drawn.
target: AaDOP2 (Aedes aegypti, UniProt H6D5H2); test: AaDOP2 antagonist screen of the LOPAC1280 library (HEK-CRELuc-Aadop2 cells, luminescence); format: cell-based; conditions: not given
Sequence (H6D5H2 1-476): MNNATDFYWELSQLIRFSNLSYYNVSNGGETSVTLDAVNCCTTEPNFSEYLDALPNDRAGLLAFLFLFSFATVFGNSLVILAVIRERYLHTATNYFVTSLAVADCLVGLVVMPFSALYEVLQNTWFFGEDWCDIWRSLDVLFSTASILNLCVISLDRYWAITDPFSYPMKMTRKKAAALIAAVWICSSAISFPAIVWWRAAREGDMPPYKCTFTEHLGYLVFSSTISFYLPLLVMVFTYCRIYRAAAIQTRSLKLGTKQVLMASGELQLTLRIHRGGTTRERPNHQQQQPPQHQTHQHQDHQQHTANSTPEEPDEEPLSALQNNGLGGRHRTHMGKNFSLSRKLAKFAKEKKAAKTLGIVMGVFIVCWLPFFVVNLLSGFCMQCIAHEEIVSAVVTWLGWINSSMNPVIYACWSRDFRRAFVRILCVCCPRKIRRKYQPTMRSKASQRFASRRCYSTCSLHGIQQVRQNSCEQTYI

| SMILES | Compound effect (percent receptor signaling in presence of test compound, relative lux units relative to the SCH23390 control) |
| --- | --- |
| O=C(O)/C(=C/c1c(C(=O)O)[nH]c2cc(Cl)cc(Cl)c12)c1ccccc1 [Compound 833, MDL 105,519] | 83 |
| Cc1ccccc1CNc1ncnc2c1ncn2[C@@H]1O[C@H](CO)[C@@H](O)[C@H]1O [Compound 834, Metrifudil] | 96 |
| O=C(O)c1cccnc1Nc1cccc(C(F)(F)F)c1 [Compound 837, Niflumic acid] | 90 |
| CS(=O)(=O)Nc1ccc([N+](=O)[O-])cc1Oc1ccccc1 [Compound 838, Nimesulide] | 88 |
| O=C(CCNNC(=O)c1ccncc1)NCc1ccccc1 [Compound 839, Nialamide] | 87 |
| CN1Cc2c(N)cccc2C(c2ccccc2)C1 (centres unmarked) [Compound 840, Nomifensine maleate] | 42 |
| Cl.Cl.Oc1ccc2c3c1O[C@H]1c4[nH]c5c(c4C[C@@]4(O)[C@@H](C2)N(CC2CC2)CC[C@]314)C[C@@]1(O)[C@H]2Cc3ccc(O)c4c3[C@@]1(CCN2CC1CC1)[C@H]5O4 [Compound 841, nor-Binaltorphimine dihydrochloride] | 98 |
| CN(C)C(=O)Oc1cccc([N+](C)(C)C)c1 [Compound 842, Neostigmine bromide] | 100 |
| CC1(C)CCC(NC(=O)[C@@H](N)CCC(=O)O)CC1 [Compound 843, CR 2249] | 92 |
| O=[N+]([O-])c1ccc(CSc2ncnc3c2ncn3[C@@H]2O[C@H](CO)[C@@H](O)[C@H]2O)cc1 [Compound 844, S-(4-Nitrobenzyl)-6-thioinosine] | 93 |
| O=C1CC[C@@]2(O)[C@H]3Cc4ccc(O)c5c4[C@@]2(CCN3CC2CC2)[C@H]1O5 [Compound 845, Naltrexone hydrochloride] | 101 |
| N[C@@H](CCC(=O)N[C@@H](CSN=O)C(=O)NCC(=O)O)C(=O)O [Compound 850, S-Nitrosoglutathione] | 100 |
| O=C(O)/C=C1\CCCc2ccccc2C1O (centres unmarked) [Compound 851, NCS-382] | 97 |
| CCn1cc(C(=O)[O-])c(=O)c2ccc(C)nc21.[Na+] [Compound 852, Nalidixic acid sodium] | 99 |
| Oc1ccc2c3c1O[C@H]1[C@@H](O)CC[C@@]4(O)[C@@H](C2)N(CC2CCC2)CC[C@]314 [Compound 853, Nalbuphine hydrochloride] | 96 |
| O=C(O)c1cc([N+](=O)[O-])ccc1NCCCc1ccccc1 [Compound 854, 5-Nitro-2-(3-phenylpropylamino)benzoic acid] | 99 |
| CN1CCC[C@H]1c1cccnc1.O=C(O)C(O)C(O)C(=O)O.O=C(O)C(O)C(O)C(=O)O [Compound 857, (-)-Nicotine hydrogen tartrate salt] | 92 |
| N=C(NCCC[C@H](N)C(=O)O)N[N+](=O)[O-] [Compound 858, NG-Nitro-L-arginine] | 95 |

| SMILES | Compound effect (percent receptor signaling in presence of test compound, relative lux units relative to the SCH23390 control) |
| --- | --- |
| c1ccc2c(CC3=NCCN3)cccc2c1 [Compound 859, Naphazoline hydrochloride] | 90 |
| O=C(O)CC[N+](=O)[O-] [Compound 860, 3-Nitropropionic acid] | 91 |
| CNCCC=C1c2ccccc2CCc2ccccc21 [Compound 863, Nortriptyline hydrochloride] | 4 |
| COC(=O)C1=C(C)NC(C)=C(C(=O)OCCN(C)Cc2ccccc2)C1c1cccc([N+](=O)[O-])c1 (centres unmarked) [Compound 865, Nicardipine hydrochloride] | 76 |
| COC(=O)C1=C(C)NC(C)=C(C(=O)OC)C1c1ccccc1[N+](=O)[O-] [Compound 866, Nifedipine] | 78 |
| C=CCN1CC[C@]23c4c5ccc(O)c4O[C@H]2C(=O)CC[C@@]3(O)[C@H]1C5 [Compound 867, Naloxone hydrochloride] | 75 |
| O=[N+]([O-])c1cccc2cn[nH]c12 [Compound 868, 7-Nitroindazole] | 78 |
| C[N+](C)(C)CCC(=O)c1cccc2ccccc12.[I-] [Compound 870, 2-(alpha-Naphthoyl)ethyltrimethylammonium iodide] | 74 |
| CC1(C)NC(=O)N(c2ccc([N+](=O)[O-])c(C(F)(F)F)c2)C1=O [Compound 872, Nilutamide] | 93 |
| O=C(Nc1cccc(C(=O)Nc2ccc(S(=O)(=O)O)c3cc(S(=O)(=O)O)cc(S(=O)(=O)O)c23)c1)Nc1cccc(C(=O)Nc2ccc(S(=O)(=O)O)c3cc(S(=O)(=O)O)cc(S(=O)(=O)O)c23)c1 [Compound 873, NF 023] | 94 |
| Cc1ncc(CNC(=O)N(CCCl)N=O)c(N)n1 [Compound 874, Nimustine hydrochloride] | 88 |
| O=C1OC(=O)[C@H]2[C@@H]1[C@@H]1CC[C@H]2O1 [Compound 875, Norcantharidin] | 76 |
| COc1ccc2c(c1OC)C(=O)O[C@@H]2[C@H]1c2c(cc3c(c2OC)OCO3)CCN1C.Cl [Compound 876, Noscapine hydrchloride] | 78 |
| CN1CCCC1c1cccnc1.Cc1ccc(C(=O)OC(C(=O)O)C(OC(=O)c2ccc(C)cc2)C(=O)O)cc1 (stereo not drawn) [Compound 877, (+)-Nicotine (+)-di-p-toluoyl tartrate] | 80 |
| Oc1ccc2c3c1O[C@H]1c4[nH]c5ccccc5c4C[C@@]4(O)[C@@H](C2)N(CC2CC2)CC[C@]314 [Compound 878, Naltrindole hydrochloride] | 81 |
| CCOC(=O)C1=C(C)NC(C)=C(C(=O)OC)C1c1cccc([N+](=O)[O-])c1 (centres unmarked) [Compound 881, Nitrendipine] | 103 |
| COCCOC(=O)C1=C(C)NC(C)=C(C(=O)OC(C)C)C1c1cccc([N+](=O)[O-])c1 (centres unmarked) [Compound 882, Nimodipine] | 102 |
| CNCCC(Oc1ccccc1OC)c1ccccc1 (centres unmarked) [Compound 883, Nisoxetine hydrochloride] | 84 |

same assay, conditions: 10 µM compound, 300 nM dopamine, 2 hr; hit = compound effect <20

| SMILES | Compound effect (percent receptor signaling in presence of test compound, relative lux units relative to the SCH23390 control) |
| --- | --- |
| COc1ccccc1N1CCN(CCN(C(=O)c2ccc(I)cc2)c2ccccn2)CC1.Cl [Compound 832, p-MPPI hydrochloride] | 73% |
| COc1ccccc1N1CCN(CCN(C(=O)c2ccc(F)cc2)c2ccccn2)CC1.Cl.Cl [Compound 835, p-MPPF dihydrochloride] | 81% |
| Br.COc1ccccc1N1CCN(CCCCN2C(=O)c3ccccc3C2=O)CC1 [Compound 848, NAN-190 hydrobromide] | 42% |
| O=C(Nc1cc(C(=O)Nc2ccc(S(=O)(=O)[O-])cc2S(=O)(=O)[O-])cc(C(=O)Nc2ccc(S(=O)(=O)[O-])cc2S(=O)(=O)[O-])c1)Nc1cc(C(=O)Nc2ccc(S(=O)(=O)[O-])cc2S(=O)(=O)[O-])cc(C(=O)Nc2ccc(S(=O)(=O)[O-])cc2S(=O)(=O)[O-])c1.[Na+].[Na+].[Na+].[Na+].[Na+].[Na+].[Na+].[Na+] [Compound 855, NF449 octasodium salt] | 112% |
| CC(Cc1ccc(O)c(O)c1)C(C)Cc1ccc(O)c(O)c1 (centres unmarked) [Compound 856, Nordihydroguaiaretic acid from Larrea divaricata (creosote bush)] | 64% |
| COC(=O)[C@@H](N)CCCN=C(N)N[N+](=O)[O-].Cl [Compound 861, NG-Nitro-L-arginine methyl ester hydrochloride] | 96% |
| NC(=O)C1=CN([C@@H]2O[C@H](COP(=O)(O)OP(=O)(O)OC[C@H]3O[C@@H](n4cnc5c(N)ncnc54)[C@H](OP(=O)(O)O)[C@@H]3O)[C@@H](O)[C@H]2O)C=CC1 [Compound 864, NADPH tetrasodium] | 92% |
| O=Nc1ccc2oc(=O)ccc2c1 [Compound 871, 6-Nitroso-1,2-benzopyrone] | 93% |
| Cl.O=C(CCCN1CCC2(CC1)C(=O)N(CCc1ccc(N=C=S)cc1)CN2c1ccccc1)c1ccc(F)cc1 [Compound 879, N-(p-Isothiocyanatophenethyl)spiperone hydrochloride] | 83% |
| Cl.O=C(O)C1=CCCN(CCON=C(c2ccccc2)c2ccccc2)C1 [Compound 880, NO-711 hydrochloride] | 81% |

same assay, conditions: read-out: % of the SCH23390 effect (percent inhibition of receptor response relative to the SCH23390 control)

| SMILES | inhibition at 10 µM |
| --- | --- |
| CNCCC=C1c2ccccc2CCc2ccccc21 [Compound 863, Nortriptyline hydrochloride] | 96% |
